Experimental data taken from patent publication US10765114B2, “4-amino-6-(pyridyl and 2-substitutedphenyl)-picolinates and 6-amino-2-(pyridyl and 2-substitutedphenyl)-pyrimidine-4-carboxylates and their use as herbicides” (Dow AgroSciences LLC, priority 2013, dated 2020).

Tested on: Key Grass and Sedge Weeds as well as Grass Crops
Experiment: Post-Emergent Test II (Table 6)
Format: in vivo
Settings: post-emergence, 336 h, ZEAMX: maize, corn (Zea mays), 140 g ai/ha, 14 days after application, read-out: Visual Growth Reduction (%) 14 Days After Application ZEAMX
Procedure, shortened: (§1)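 Seedlings are raised 7-21 days in Metro-Mix 360 (pH 6.0-6.8) under greenhouse conditions, then sprayed at the first or second true leaf stage. Application is 187 L/ha, with serial rates down to 1/16× of the highest. Plants are subirrigated, and percent injury is rated visually after 14 days.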

Row | Compound | pest or weed control at 140 g/ha
1 | Nc1c(F)c(-c2ccc(C(F)(F)F)nc2)nc(C(=O)O)c1Cl [Compound 46, 4-amino-5-chloro-3-fluoro-6′-(trifluoromethyl)-[2,3′-bipyridine]-6-carboxylic acid] | 85 to 94%

Tested on: Key Broadleaf Weed and Crop Species
Experiment: Post-Emergent Test II (Table 5)
Format: in vivo
Settings: Abutilon theophrasti, post-emergence, 336 h, ABUTH: velvetleaf (Abutilon theophrasti), application rate 70 (kg ai/ha; footnote: g ai/ha), read-out: Visual Growth Reduction (%) 14 Days After Application ABUTH
Procedure, shortened: as §1

Row | Compound | pest or weed control at 70 g/ha
2 | Nc1c(F)c(-c2ccc(C(F)(F)F)nc2)nc(C(=O)O)c1Cl [Compound 46, 4-amino-5-chloro-3-fluoro-6′-(trifluoromethyl)-[2,3′-bipyridine]-6-carboxylic acid] | 85 to 94%

Same assay, conditions: Abutilon theophrasti, post-emergence, 336 h, ABUTH: velvetleaf (Abutilon theophrasti), application rate 140 (kg ai/ha; footnote: g ai/ha), read-out: Visual Growth Reduction (%) 14 Days After Application ABUTH

Row | Compound | pest or weed control at 140 g/ha
3 | Nc1c(F)c(-c2ccc(C(F)(F)F)nc2)nc(C(=O)O)c1Cl [Compound 46, 4-amino-5-chloro-3-fluoro-6′-(trifluoromethyl)-[2,3′-bipyridine]-6-carboxylic acid] | 95 to 100%

Same assay, conditions: Amaranthus retroflexus, post-emergence, 336 h, AMARE: redroot pigweed (Amaranthus retroflexus), application rate 70 (kg ai/ha; footnote: g ai/ha), read-out: Visual Growth Reduction (%) 14 Days After Application AMARE

Row | Compound | pest or weed control at 70 g/ha
4 | Nc1c(F)c(-c2ccc(C(F)(F)F)nc2)nc(C(=O)O)c1Cl [Compound 46, 4-amino-5-chloro-3-fluoro-6′-(trifluoromethyl)-[2,3′-bipyridine]-6-carboxylic acid] | 95 to 100%

Same assay, conditions: Amaranthus retroflexus, post-emergence, 336 h, AMARE: redroot pigweed (Amaranthus retroflexus), application rate 140 (kg ai/ha; footnote: g ai/ha), read-out: Visual Growth Reduction (%) 14 Days After Application AMARE

Row | Compound | pest or weed control at 140 g/ha
5 | Nc1c(F)c(-c2ccc(C(F)(F)F)nc2)nc(C(=O)O)c1Cl [Compound 46, 4-amino-5-chloro-3-fluoro-6′-(trifluoromethyl)-[2,3′-bipyridine]-6-carboxylic acid] | 95 to 100%

Same assay, conditions: Brassica napus, post-emergence, 336 h, BRSSS: oilseed rape, canola (Brassica napus), application rate 70 (kg ai/ha; footnote: g ai/ha), read-out: Visual Growth Reduction (%) 14 Days After Application BRSSS

Row | Compound | pest or weed control at 70 g/ha
6 | Nc1c(F)c(-c2ccc(C(F)(F)F)nc2)nc(C(=O)O)c1Cl [Compound 46, 4-amino-5-chloro-3-fluoro-6′-(trifluoromethyl)-[2,3′-bipyridine]-6-carboxylic acid] | 95 to 100%

Same assay, conditions: Brassica napus, post-emergence, 336 h, BRSSS: oilseed rape, canola (Brassica napus), application rate 140 (kg ai/ha; footnote: g ai/ha), read-out: Visual Growth Reduction (%) 14 Days After Application BRSSS

Row | Compound | pest or weed control at 140 g/ha
7 | Nc1c(F)c(-c2ccc(C(F)(F)F)nc2)nc(C(=O)O)c1Cl [Compound 46, 4-amino-5-chloro-3-fluoro-6′-(trifluoromethyl)-[2,3′-bipyridine]-6-carboxylic acid] | 95 to 100%

Same assay, conditions: Chenopodium album, post-emergence, 336 h, CHEAL: lambsquarters (Chenopodium album), application rate 70 (kg ai/ha; footnote: g ai/ha), read-out: Visual Growth Reduction (%) 14 Days After Application CHEAL

Row | Compound | pest or weed control at 70 g/ha
8 | Nc1c(F)c(-c2ccc(C(F)(F)F)nc2)nc(C(=O)O)c1Cl [Compound 46, 4-amino-5-chloro-3-fluoro-6′-(trifluoromethyl)-[2,3′-bipyridine]-6-carboxylic acid] | 95 to 100%

Same assay, conditions: Chenopodium album, post-emergence, 336 h, CHEAL: lambsquarters (Chenopodium album), application rate 140 (kg ai/ha; footnote: g ai/ha), read-out: Visual Growth Reduction (%) 14 Days After Application CHEAL

Row | Compound | pest or weed control at 140 g/ha
9 | Nc1c(F)c(-c2ccc(C(F)(F)F)nc2)nc(C(=O)O)c1Cl [Compound 46, 4-amino-5-chloro-3-fluoro-6′-(trifluoromethyl)-[2,3′-bipyridine]-6-carboxylic acid] | 95 to 100%

Same assay, conditions: Euphorbia heterophylla, post-emergence, 336 h, EPHHL: wild poinsettia (Euphorbia heterophylla), application rate 70 (kg ai/ha; footnote: g ai/ha), read-out: Visual Growth Reduction (%) 14 Days After Application EPHHL

Row | Compound | pest or weed control at 70 g/ha
10 | Nc1c(F)c(-c2ccc(C(F)(F)F)nc2)nc(C(=O)O)c1Cl [Compound 46, 4-amino-5-chloro-3-fluoro-6′-(trifluoromethyl)-[2,3′-bipyridine]-6-carboxylic acid] | 95 to 100%

Same assay, conditions: Euphorbia heterophylla, post-emergence, 336 h, EPHHL: wild poinsettia (Euphorbia heterophylla), application rate 140 (kg ai/ha; footnote: g ai/ha), read-out: Visual Growth Reduction (%) 14 Days After Application EPHHL

Row | Compound | pest or weed control at 140 g/ha
11 | Nc1c(F)c(-c2ccc(C(F)(F)F)nc2)nc(C(=O)O)c1Cl [Compound 46, 4-amino-5-chloro-3-fluoro-6′-(trifluoromethyl)-[2,3′-bipyridine]-6-carboxylic acid] | 95 to 100%

Same assay, conditions: Helianthus annuus, post-emergence, 336 h, HELAN: sunflower (Helianthus annuus), application rate 70 (kg ai/ha; footnote: g ai/ha), read-out: Visual Growth Reduction (%) 14 Days After Application HELAN

Row | Compound | pest or weed control at 70 g/ha
12 | Nc1c(F)c(-c2ccc(C(F)(F)F)nc2)nc(C(=O)O)c1Cl [Compound 46, 4-amino-5-chloro-3-fluoro-6′-(trifluoromethyl)-[2,3′-bipyridine]-6-carboxylic acid] | 95 to 100%

Same assay, conditions: Helianthus annuus, post-emergence, 336 h, HELAN: sunflower (Helianthus annuus), application rate 140 (kg ai/ha; footnote: g ai/ha), read-out: Visual Growth Reduction (%) 14 Days After Application HELAN

Row | Compound | pest or weed control at 140 g/ha
13 | Nc1c(F)c(-c2ccc(C(F)(F)F)nc2)nc(C(=O)O)c1Cl [Compound 46, 4-amino-5-chloro-3-fluoro-6′-(trifluoromethyl)-[2,3′-bipyridine]-6-carboxylic acid] | 95 to 100%

Same assay, conditions: Viola tricolor, post-emergence, 336 h, VIOTR: wild pansy (Viola tricolor), application rate 70 (kg ai/ha; footnote: g ai/ha), read-out: Visual Growth Reduction (%) 14 Days After Application VIOTR

Row | Compound | pest or weed control at 70 g/ha
14 | Nc1c(F)c(-c2ccc(C(F)(F)F)nc2)nc(C(=O)O)c1Cl [Compound 46, 4-amino-5-chloro-3-fluoro-6′-(trifluoromethyl)-[2,3′-bipyridine]-6-carboxylic acid] | 85 to 94%

Same assay, conditions: Viola tricolor, post-emergence, 336 h, VIOTR: wild pansy (Viola tricolor), application rate 140 (kg ai/ha; footnote: g ai/ha), read-out: Visual Growth Reduction (%) 14 Days After Application VIOTR

Row | Compound | pest or weed control at 140 g/ha
15 | Nc1c(F)c(-c2ccc(C(F)(F)F)nc2)nc(C(=O)O)c1Cl [Compound 46, 4-amino-5-chloro-3-fluoro-6′-(trifluoromethyl)-[2,3′-bipyridine]-6-carboxylic acid] | 95 to 100%

Tested on: not given
Experiment: not given
Settings: not given

Row | melting point | Compound
16 | 164 °C | Nc1c(F)c(-c2ccc(C(F)(F)F)nc2)nc(C(=O)O)c1Cl [Compound 46, 4-amino-5-chloro-3-fluoro-6′-(trifluoromethyl)-[2,3′-bipyridine]-6-carboxylic acid]
